Assay results published in publication PMC2151243 (British Journal of Cancer, 1998).
Values joined by “and” are separate entries in the source; they are usually repeats but may differ in a detail not shown here. Equal values may be shown once. “Also recorded” adds a separate entry of the source.

Legend:
[1] = test system: Sheep antiserum to ZD1694 (S37B14); test: Radioimmunoassay: cross-reaction of S37B14 antiserum; format: binding; conditions: for Cross-reaction of S37B14 antiserum (%): relative amount of ZD1694 and cross-reactant required to inhibit antibody binding of radiolabel by 50%
From the text: (§1) British Joumal of Cancer (1998) 77(2), 221-226 ? […] Tomudex is now available for the treat- ment of advanced colorectal cancer in several countries. […] The limit of detection of this assay for plasma was 0.2 g1M when a solid-phase extraction was used. […] Separation of polyglutamated metabo- lites by HPLC was followed by quantitation in fractions using radiochemical analysis (Jackman et al, 1991c; Gibson et al, 1993) or by measuring inhibition of TS (Sikora et al, 1988). […] The dog was chosen as an additional model, because, unlike mice, plasma levels of thymidine are low and this species is much more sensitive to the effects of TS inhibitors than rodents. […] Acetonitrile was from Fisons, Dextran T70 from Pharmacia and all other chemicals from Sigma. Solutions were prepared with deionized water. […] Stock solutions (10 mM) were prepared in 0.15 M sodium bicar- bonate and stored at -20?C. For the mouse studies, the drug was formulated in 0.05 M sodium bicarbonate and the pH was adjusted to 8.5-9.0. Radioimmunoassay The assay diluent was 0.05 M phosphate buffer pH 7.4, containing 1 g 1-' gelatin and 6 g 1-' sodium chloride (PBSG). Initially, all dilutions and dispensing of standards and samples were made with a Dilutrend diluter, but a Multiprobe (Canberra Packard) auto- mated liquid-handling system was later programmed to perform these steps in the assay. […] Samples were assayed at three appropriate dilutions to ensure that the results of at least two dilutions fell on the linear portion of the stan- dard curve, and samples were reassayed at different dilutions if necessary. The antiserum was diluted in PBSG so that approxi- mately 40% of total radioactivity was bound (Bo) to antibody. This dilution was previously determined from an antiserum dilution curve and was 1:300 to 1:500 depending on the batch of radiolabel used. […] Diluted standards and samples (0.1 ml) were added in duplicate to numbered LP3 tubes (Luckham) or to deep-well blocks (Beckman) with 0.3 ml of assay diluent, 0.1 ml of diluted anti- serum and 0.1 ml of diluted label, mixed and left to stand in iced water for 1 h. Each assay included total counts and non-specific- binding tubes, containing only the radiolabel and buffer, and zero- standard-binding tubes (Bo), which contained only radiolabel and antiserum. The antibody-bound radiolabel was separated from unbound radiolabel by the addition of ice-cold dextran-coated charcoal [2.5% (w/v) activated charcoal (Sigma) coated with 0.25% (w/v) Dextran T-70 (Pharmacia)] to all but the total-counts tubes for 10 min. After centrifugation at 1000 g for 10 min at 4?C, 0.5 ml aliquots of supematant were taken from each assay tube for scintillation counting in 4.0 ml of Ultima gold scintillant (Canberra-Packard). […] The radioimmunoassays were carried out at the Institute of Cancer Research. […] The limit of detection for 6-8 x 10^6 cells is 0.05 µM intracellular concentration. […] Plasma was immediately separated from the; approximately blood by microcentrifugation and stored at -20?C until assayed. Liver and kidney samples were immediately frozen on solid carbon dioxide. Gut epithelium samples were obtained 1 day after drug treatment.

[2] = molecular target: Thymidylate synthase (TS; EC 2.1.1.45), mouse enzyme; conditions: ref Jackman et al, 1991a, Gibson et al, 1993, read-out: Kj for mouse enzyme; cited from earlier work
[3] = mouse, in vivo; cited from earlier work
[4] = set-up: method as in Aherme et al, 1996b; conditions: ref Aherme et al, 1996b; cited from earlier work
[5] = Mouse pharmacokinetic studies: plasma and tissue levels by radioimmunoassay; format: in vivo, female DBA2 mice; conditions: female, plasma, ip
From the text: as §1

[6] = Pharmacokinetic studies in dogs: plasma and tissue levels by radioimmunoassay; format: in vivo, Alderley Park Beagle dogs
From the text: British Joumal of Cancer (1998) 77(2), 221-226 ? […] Tomudex is now available for the treat- ment of advanced colorectal cancer in several countries. […] The limit of detection of this assay for plasma was 0.2 g1M when a solid-phase extraction was used. […] Separation of polyglutamated metabo- lites by HPLC was followed by quantitation in fractions using radiochemical analysis (Jackman et al, 1991c; Gibson et al, 1993) or by measuring inhibition of TS (Sikora et al, 1988). […] The dog was chosen as an additional model, because, unlike mice, plasma levels of thymidine are low and this species is much more sensitive to the effects of TS inhibitors than rodents. […] Acetonitrile was from Fisons, Dextran T70 from Pharmacia and all other chemicals from Sigma. Solutions were prepared with deionized water. […] Stock solutions (10 mM) were prepared in 0.15 M sodium bicar- bonate and stored at -20?C. For the mouse studies, the drug was formulated in 0.05 M sodium bicarbonate and the pH was adjusted to 8.5-9.0. Radioimmunoassay The assay diluent was 0.05 M phosphate buffer pH 7.4, containing 1 g 1-' gelatin and 6 g 1-' sodium chloride (PBSG). […] The antiserum was diluted in PBSG so that approxi- mately 40% of total radioactivity was bound (Bo) to antibody. This dilution was previously determined from an antiserum dilution curve and was 1:300 to 1:500 depending on the batch of radiolabel used. […]

L1210 cells = test system: L1210 cells; set-up: method as in Jackman et al, 1995c; conditions: L1210, 0.1 µM, 24 h; ref Jackman et al, 1995c; cited from earlier work
L1210:RD1694 cells = test system: L1210:RD1694 cells; set-up: method as in Jackman et al, 1995c; conditions: resistant line, after 24 h; ref Jackman et al, 1995c; cited from earlier work
[7] = set-up: method as in Jodrell et al, 1991; conditions: mice, 100 mg kg-1, HPLC; ref Jodrell et al, 1991; cited from earlier work
[8] = set-up: method as in Judson et al, 1996; conditions: man, ref Judson et al, 1996, cited from earlier work
[9] = set-up: method as in Jackman et al, 1995a; conditions: mice, ref Jackman et al, 1995a, cited from earlier work
[10] = test system: L5178Y TK-/- mouse lymphoma; set-up: method as in Jackman et al, 1991b; conditions: single i.p. injection 10 mg kg-1; ref Jackman et al, 1991b; cited from earlier work
[11] = test system: thymidine salvage competent models; set-up: method as in Jackman et al, 1991a and b; conditions: repeated treatment over 5 days; ref Jackman et al, 1991a and b; cited from earlier work

With `Cc1nc2ccc(CN(C)c3ccc(C(=O)NC(CCC(=O)NC(CCC(=O)NC(CCC(=O)NC(CCC(=O)NC(CCC(=O)NC(CCC(=O)O)C(=O)O)C(=O)O)C(=O)O)C(=O)O)C(=O)O)C(=O)O)s3)cc2c(=O)[nH]1` (stereo not shown) [Hexaglutamate] the “Cross-reaction of S37B14 antiserum (%)” value [1] was 100%.

In the case of `Nc1nc2c(c(=O)[nH]1)N(C=O)C(CNc1ccc(C(=O)N[C@@H](CCC(=O)O)C(=O)O)cc1)CN2` (stereo partly shown) [Leucovorin], the “Cross-reaction of S37B14 antiserum (%)” value [1] is reported as under 0.01%.

In the case of `Cc1nc2ccc(CN(C)c3ccc(C(=O)NC(CCC(=O)NC(CCC(=O)NC(CCC(=O)NC(CCC(=O)O)C(=O)O)C(=O)O)C(=O)O)C(=O)O)s3)cc2c(=O)[nH]1` (stereo not shown) [Tetraglutamate], the “Cross-reaction of S37B14 antiserum (%)” value [1] is given as 110% and the Ki [2] is given as 1 nM.

For `C#CCN(Cc1cc2c(=O)[nH]c(C)nc2cc1C)c1ccc(C(=O)N[C@@H](CCC(=O)N[C@H](CCC(=O)O)C(=O)O)C(=O)O)c(F)c1` [CB30900], the “liver levels relative to plasma levels” value [3] is given as “sixfold higher”.

For `Cc1nc2ccc(CN(C)c3ccc(C(=O)NC(CCC(=O)NC(CCC(=O)O)C(=O)O)C(=O)O)s3)cc2c(=O)[nH]1` (stereo not shown) [Diglutamate], the “Cross-reaction of S37B14 antiserum (%)” value [1] was 90%.

In the case of `C#CCN(Cc1cc2c(=O)[nH]c(C)nc2cc1C)c1ccc(C(=O)N[C@@H](CCc2nnn[nH]2)C(=O)O)c(F)c1` [ZD933 1], the “tissue to plasma ratios” value [4] is listed as “low tissue to plasma ratios”.

In the case of `Cc1nc2ccc(CN(C)c3ccc(C(=O)N[C@@H](CCC(=O)O)C(=O)O)s3)cc2c(=O)[nH]1` [ZD1694, N-[5-[N-(3,4-dihydro-2-methyl-4-oxoquinazolin-6-ylmethyl)-N-methylamino]-2-thenoyl]-L-glutamic acid], the IC50 ([1]; ZD1694 standard curve, read-out: mean dose at 50% inhibition of binding) is reported as 1.47 nM, the “Cross-reaction of S37B14 antiserum (%)” value [1] is reported as 100% and the concentration at 1 day ([5]; DBA2, mouse, single i.p. 1 mg kg-1, day 1) is reported as 2.26 ng/mL. It also gave a concentration at 1 day ([5]; DBA2, mouse, single i.p. 10 mg kg-1, day 1) of 7.18 nM, a concentration at 1 day ([5]; DBA2, mouse, single i.p. 100 mg kg-1, day 1) of 30.7 nM and a concentration at 4 day ([5]; DBA2, mouse, single i.p. 100 mg kg-1, day 4) of 2.39 nM. For the same compound, the half-life ([5]; mouse, DBA2 mice, 5 mg kg-1 i.p., non-compartmental model, read-out: plasma elimination phase (half-life) (converted)) was about 2.7 h, the concentration at 28 day ([6]; Alderley Park Beagle, dog, plasma, iv, 0.2 mg kg-1 single i.v. bolus, 28 days after administration) was ~0.4 ng/mL and ~0.85 nM and the “gastrointestinal tissue drug concentrations” value ([6]; at 28 days, limit of detection 0.015 nmol g-1) was “near to the limit of detection; also recorded: at or near the limit of detection”. For the same compound, the “intracellular concentration of ZD1694 by radioassay” value (L1210 cells) was 3.8 gM, the “level of total drug ZD1694 estimated by radioassay” value (L1210:RD1694 cells) was 0.44 gM and the plasma half-life [7] was about 0.5 h. For the same compound, the third phase half-life ([8]; plasma) was 257 h, the “drug measured in the plasma” value ([8]; up to 4 weeks after drug administration) was 1 to 10 ng/mL and the “radioactivity in the tissues present as polyglutamates” value ([9]; 24 h after tritiated ZD1694 5 mg kg-1) was about 80%. For the same compound, the “polyglutamates in mouse plasma” value ([9]; tritiated ZD1694) was “No polyglutamates were found”, the anti-tumour effect [10] was “curative” and the anti-tumour effect [11] was “led to anti- tumour activity”.

In the case of `Cc1nc2ccc(CN(C)c3ccc(C(=O)NC(CCC(=O)NC(CCC(=O)NC(CCC(=O)O)C(=O)O)C(=O)O)C(=O)O)s3)cc2c(=O)[nH]1` (stereo not shown) [Triglutamate], the “Cross-reaction of S37B14 antiserum (%)” value [1] is reported as 92%.

With `Cc1nc2ccc(CN(C)c3ccc(C(=O)N[C@@H](CCC(=O)N[C@@H](CCC(=O)N[C@@H](CCC(=O)N[C@@H](CCC(=O)N[C@@H](CCC(=O)O)C(=O)O)C(=O)O)C(=O)O)C(=O)O)C(=O)O)s3)cc2c(=O)[nH]1` [Pentaglutamate] the “Cross-reaction of S37B14 antiserum (%)” value [1] was 110%.

With `CN1c2c(nc(N)[nH]c2=O)NCC1CNc1ccc(C(=O)N[C@@H](CCC(=O)O)C(=O)O)cc1` (stereo partly shown) [Methyl-THFA] the “Cross-reaction of S37B14 antiserum (%)” value [1] was under 0.01%.
